Reference: PMC10084949, “Peptide Variant Detection by a Living Yeast Biosensor via an Epitope-Selective Protease” (Biodesign Research, 2023)
Peptide text beside a SMILES is read from it.

Experiments:
[1] = tested on: SoSte2 with SoSxa2 or other fungal proteases; test: Dose-response of SoSte2 fluorescent strains with cognate or noncognate proteases; format: cell-based, Schizosaccharomyces octosporus
Experimental: Glycerol stocked strains were streaked out on YPD plate and incubated for 2 days. Three colonies were picked, replated on YPD plate, incubated for 1 day, and then stored at 4 °C. For activation assays, a small scoop of yeast patch from the 3 colonies was resuspended in ~4 ml of YPD medium and incubated overnight. Overnight cells were seeded at an optical density at 600 nm (OD600) of 0.15 (as measured in 96-well plate at 200-μl volume) in SC/Glc medium after washing twice with sterile Mili-Q H2O. GPCR activity and response to increasing concentrations of synthetic peptide ligands were measured in strains carrying appropriate genome-integrated components in 96-well microtiter plates in 200-μl total volume and cultured at 30 °C and 800 rpm, unless otherwise stated. All measurements were performed in biological triplicate. Culture turbidity (OD600) and fluorescence for ymTurquoise2 (excitation, 439 nm; emission, 475 nm; gain, 75) were measured after 0 and 8 h using an Infinite 200 Pro plate reader (Tecan). Dose–response curve was measured at 11 different concentrations of the appropriate synthetic peptide ligand with a constant dilution factor and a no-peptide, H2O control. The absorbance at 600 nm normalized fluorescence values and log10-transformed peptide concentrations were fit to a 4-parameter nonlinear regression model using Prism (GraphPad) to extract GPCR-specific values for basal activation, maximal activation, EC50, and the Hill coefficient. […]
Next, to validate whether we can control the extent of peptide cleavage by their cognate proteases by modulating the concentration of expressed protease, we constitutively expressed proteases under promoters of different expression levels. […] We cloned these promoters upstream from protease ORFs in Golden Gate cassette plasmids, assembled the protease cassettes with their cognate GPCRs and fluorescent readout, and integrated into parent yTC370 strain (see Materials and Methods and Table S1). […]

[2] = target: T1, SpSte2 with SpSxa2 or other fungal proteases (Schizosaccharomyces pombe, UniProt Q00619); test: Dose-response of SpSte2 fluorescent strains with cognate or noncognate proteases; format: cell-based
T1 construct: we cloned codon-optimized open reading frames (ORFs) of all 5 proteases and GPCRs; expressed in transfected cells; host or cells: S. cerevisiae strains from yTC370 (yTC530, yTC529, yTC531-534, yTC525, yTC526); two genome-integrated pTDH3-SpSTE2 copies
T1 sequence (Q00619 1-348): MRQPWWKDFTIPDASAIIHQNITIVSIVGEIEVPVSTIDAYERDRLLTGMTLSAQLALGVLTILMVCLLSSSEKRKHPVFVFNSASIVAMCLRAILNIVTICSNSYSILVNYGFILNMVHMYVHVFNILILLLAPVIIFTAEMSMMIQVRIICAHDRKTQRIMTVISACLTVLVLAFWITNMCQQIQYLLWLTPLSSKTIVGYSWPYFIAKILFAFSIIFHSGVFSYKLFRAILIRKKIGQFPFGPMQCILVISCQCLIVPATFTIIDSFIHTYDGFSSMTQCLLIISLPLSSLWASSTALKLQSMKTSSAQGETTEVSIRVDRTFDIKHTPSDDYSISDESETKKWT
Experimental: (§1) Glycerol stocked strains were streaked out on YPD plate and incubated for 2 days. Three colonies were picked, replated on YPD plate, incubated for 1 day, and then stored at 4 °C. For activation assays, a small scoop of yeast patch from the 3 colonies was resuspended in ~4 ml of YPD medium and incubated overnight. Overnight cells were seeded at an optical density at 600 nm (OD600) of 0.15 (as measured in 96-well plate at 200-μl volume) in SC/Glc medium after washing twice with sterile Mili-Q H2O. GPCR activity and response to increasing concentrations of synthetic peptide ligands were measured in strains carrying appropriate genome-integrated components in 96-well microtiter plates in 200-μl total volume and cultured at 30 °C and 800 rpm, unless otherwise stated. All measurements were performed in biological triplicate. Culture turbidity (OD600) and fluorescence for ymTurquoise2 (excitation, 439 nm; emission, 475 nm; gain, 75) were measured after 0 and 8 h using an Infinite 200 Pro plate reader (Tecan). Dose–response curve was measured at 11 different concentrations of the appropriate synthetic peptide ligand with a constant dilution factor and a no-peptide, H2O control. The absorbance at 600 nm normalized fluorescence values and log10-transformed peptide concentrations were fit to a 4-parameter nonlinear regression model using Prism (GraphPad) to extract GPCR-specific values for basal activation, maximal activation, EC50, and the Hill coefficient.
(§2) To validate the effect of peptide proteases on their complementary and noncomplementary peptides (Table S8), from the parent strain yTC370, we engineered 30 strains (Table S1).
(§3) Next, to validate whether we can control the extent of peptide cleavage by their cognate proteases by modulating the concentration of expressed protease, we constitutively expressed proteases under promoters of different expression levels. For the purpose of determining the protease’s specificity in previous section (S1), all proteases were expressed under pCCW12, which is one of the strongest characterized promoters in yeast. Here, we introduced 2 additional promoters to convey medium and low expression levels of the proteases. We selected pRPL18B for medium expression and pRAD27 for low expression level. We cloned these promoters upstream from protease ORFs in Golden Gate cassette plasmids, assembled the protease cassettes with their cognate GPCRs and fluorescent readout, and integrated into parent yTC370 strain (see Materials and Methods and Table S1). Then, we compared dose–response curves of strains responding to their cognate peptides without the protease or with protease at 3 different expression levels (low, medium, and high) (S2).

[3] = tested on: SjSte2 with SjSxa2 or other fungal proteases; test: Dose-response of SjSte2 fluorescent strains with cognate or noncognate proteases; format: cell-based, Schizosaccharomyces japonicus
Experimental: as §1, §2, §3

[4] = noncomplementary proteases, pCCW12, fluorescent readout

Sequence of SoSte2 with SoSxa2 or other fungal proteases (as listed by the source): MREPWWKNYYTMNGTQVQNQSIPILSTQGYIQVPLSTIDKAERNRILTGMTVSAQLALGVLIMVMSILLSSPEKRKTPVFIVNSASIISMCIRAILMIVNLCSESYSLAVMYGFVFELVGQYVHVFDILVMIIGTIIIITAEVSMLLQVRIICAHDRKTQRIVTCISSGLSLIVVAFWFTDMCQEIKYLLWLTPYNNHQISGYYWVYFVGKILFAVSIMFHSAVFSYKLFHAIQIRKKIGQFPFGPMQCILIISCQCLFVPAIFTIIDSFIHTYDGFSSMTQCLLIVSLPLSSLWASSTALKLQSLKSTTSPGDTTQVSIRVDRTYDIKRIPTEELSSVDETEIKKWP
Sequence of SjSte2 with SjSxa2 or other fungal proteases (as listed by the source): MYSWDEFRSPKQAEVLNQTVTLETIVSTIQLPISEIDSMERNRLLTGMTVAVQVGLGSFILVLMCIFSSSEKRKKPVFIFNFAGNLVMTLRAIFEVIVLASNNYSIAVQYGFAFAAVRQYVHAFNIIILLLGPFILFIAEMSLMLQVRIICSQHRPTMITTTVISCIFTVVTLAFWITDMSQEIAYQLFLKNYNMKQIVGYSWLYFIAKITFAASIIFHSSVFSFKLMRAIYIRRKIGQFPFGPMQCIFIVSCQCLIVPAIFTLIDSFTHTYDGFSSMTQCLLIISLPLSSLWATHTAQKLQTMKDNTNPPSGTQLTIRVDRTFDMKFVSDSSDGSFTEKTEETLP

## TYEDFLRVYKNWWSFQNPDRPDL [SoPep, S. octosporus pheromone peptide, synthetic]
[1]; SoSxa2 under pRAD27 or pRPL18B, compared to strain with no protease
  EC50 shift with low and medium SoSxa2 expression: did not notably shift the apparent EC50
[1]; [4]
  cleavage by ScBar1 and CaBar1: did not cleave
[1]; pCCW12, fluorescent readout
  apparent EC50 shift with noncomplementary proteases SjSxa2 and SpSxa2: between half and one order of magnitude

## CC(C)C[C@H](NC(=O)[C@H](CC(N)=O)NC(=O)[C@@H]1CCCN1C(=O)[C@H](CCCNC(=N)N)NC(=O)[C@H](CC(=O)O)NC(=O)[C@@H]1CCCN1C(=O)[C@H](CC(N)=O)NC(=O)[C@@H](NC(=O)[C@H](Cc1ccccc1)NC(=O)[C@@H](NC(=O)[C@H](CC(N)=O)NC(=O)[C@H](Cc1c[nH]c2ccccc12)NC(=O)[C@H](CO)NC(=O)[C@H](CCC(N)=O)NC(=O)[C@H](Cc1ccc(O)cc1)NC(=O)[C@H](C)NC(=O)[C@H](CCCNC(=N)N)NC(=O)[C@H](CC(C)C)NC(=O)[C@H](Cc1ccccc1)NC(=O)[C@H](CC(=O)O)NC(=O)[C@H](C)NC(=O)[C@H](Cc1ccc(O)cc1)NC(=O)[C@@H](N)[C@@H](C)O)[C@@H](C)O)C(C)C)C(=O)O [SpPep] (H-TYADFLRAYQSWNTFVNPDRPNL-OH; N-terminus and C-terminus assumed)
[2]; SpSxa2 under pCCW12 (high expression), fluorescent readout, 8 h
  effect of cognate protease SpSxa2 on response: practically completely attenuated the response
[2]; SpSxa2 under pRAD27 (low expression), fluorescent readout, 8 h
  EC50 shift with low SpSxa2 expression: did not show notable apparent EC50 shift
[2]; SpSxa2 under pRPL18B (medium expression), fluorescent readout, 8 h
  EC50 shift with medium SpSxa2 expression: ~2 orders of magnitude
[2]; [4]
  cleavage by ScBar1 and CaBar1: did not cleave
[2]; out of the measurable peptide concentration range, pCCW12, fluorescent readout
  apparent EC50 with complementary protease SpSxa2: > 100 µM
[2]; pCCW12, fluorescent readout
  apparent EC50 shift with noncomplementary proteases SjSxa2 and SoSxa2: between half and one order of magnitude

## VSDRVKQMLSHWWNFRNPDTANL [SjPep, S. japonicus pheromone peptide, synthetic]
[3]; SjSxa2 under pCCW12 (high expression), fluorescent readout, 8 h
  apparent EC50 shift with complementary protease SjSxa2: over one order of magnitude
[3]; SjSxa2 under pRAD27 (low expression)
  EC50 shift with low SjSxa2 expression: did not affect EC50
[3]; SjSxa2 under pRPL18B and pCCW12, out of measurable range (>100 μM)
  apparent EC50 shift with medium and high SjSxa2 expression: more than 2 orders of magnitude
[3]; out of the measurable peptide concentration range, pCCW12, fluorescent readout, read-out: apparent EC50 with complementary protease SjSxa2
  EC50: > 100 µM
